According to patent US10456358B2, “Isoxazoline compositions and use thereof in the prevention or treatment of parasite infestations in animals” (Intervet Inc., priority 2013, dated 2019):

System: poultry red mite (Dermanyssus gallinae)
Test: Efficacy study: medicated drinking water against artificially induced poultry red mite infestations of laying hens
Assay type: in vivo
Description: Groups A-D (n=6) were treated with doses of 2, 1 and 0.5 mg fluralaner/kg BW once or 1 mg fluralaner/kg BW twice (0.5 mg/kg BW on 2 occasions).
Drinking water consumption in each was measured on three days prior to administration to calculate the average daily water consumption. Medicated water was prepared by diluting a fluralaner solution (10 mg/mL) as shown in the table below to the calculated fluralaner concentration.
On D0 (group D additionally on D7), the hens in groups A-D received fluralaner via medicated drinking water. Group E received un-medicated drinking water ad libitum.
The dose to be administered was calculated based on average body weights of each treatment group, obtained one day before treatment (D-1, D 6). A fluralaner stock solution was diluted in the drinking water to prepare medicated water ready for consumption.
The volume of medicated water offered per group on D0 (group D also on D7) was approximately 50% of the calculated mean daily water intake measured previously in the respective group in order to ensure consumption of the full dose.
Once all medicated water was consumed the other 50% volume of the mean daily water intake was supplied as tap water in the same drinker.
On Day 1, Day 5, Day 8, Day 12, D15, D19 and D22 four of six hens per group were infested with approximately 200 vital, D. gallinae mites (unfed nymphs and adults that starved before infestation for 7 days).
From each infested hen approximately 25 engorged mites were collected and incubated for approximately 24 hours. The dead, damaged and/or live mites were counted visually using a binocular.
Mites were classified as dead if no movement was determined or mites lay in a dorsal position. Mites were classified as damaged if their movement was uncoordinated.
The Mite Mortality and Mite Inhibition percentage was calculated for each treated group in comparison to a not-treated negative control group.

[1] = Group A, 2 mg/kg BW once (D0) via drinking water, laying hens, infestation on D1
[2] = Group A, 2 mg/kg BW once (D0) via drinking water, laying hens, infestation on D5
[3] = Group A, 2 mg/kg BW once (D0) via drinking water, laying hens, infestation on D8
[4] = Group A, 2 mg/kg BW once (D0) via drinking water, laying hens, infestation on D12
[5] = Group A, 2 mg/kg BW once (D0) via drinking water, laying hens, infestation on D15
[6] = Group A, 2 mg/kg BW once (D0) via drinking water, laying hens, infestation on D19
[7] = Group A, 2 mg/kg BW once (D0) via drinking water, laying hens, infestation on D22
[8] = Group B, 1 mg/kg BW once (D0) via drinking water, laying hens, infestation on D1
[9] = Group B, 1 mg/kg BW once (D0) via drinking water, laying hens, infestation on D5
[10] = Group B, 1 mg/kg BW once (D0) via drinking water, laying hens, infestation on D8
[11] = Group B, 1 mg/kg BW once (D0) via drinking water, laying hens, infestation on D12
[12] = Group B, 1 mg/kg BW once (D0) via drinking water, laying hens, infestation on D15
[13] = Group B, 1 mg/kg BW once (D0) via drinking water, laying hens, infestation on D19
[14] = Group B, 1 mg/kg BW once (D0) via drinking water, laying hens, infestation on D22
[15] = Group C, 0.5 mg/kg BW once (D0) via drinking water, laying hens, infestation on D1
[16] = Group C, 0.5 mg/kg BW once (D0) via drinking water, laying hens, infestation on D5
[17] = Group C, 0.5 mg/kg BW once (D0) via drinking water, laying hens, infestation on D8
[18] = Group C, 0.5 mg/kg BW once (D0) via drinking water, laying hens, infestation on D12
[19] = Group C, 0.5 mg/kg BW once (D0) via drinking water, laying hens, infestation on D15
[20] = Group C, 0.5 mg/kg BW once (D0) via drinking water, laying hens, infestation on D19
[21] = Group C, 0.5 mg/kg BW once (D0) via drinking water, laying hens, infestation on D22
[22] = Group D, 1 (2 × 0.5) mg/kg BW (D0 and D7) via drinking water, laying hens, infestation on D1
[23] = Group D, 1 (2 × 0.5) mg/kg BW (D0 and D7) via drinking water, laying hens, infestation on D5
[24] = Group D, 1 (2 × 0.5) mg/kg BW (D0 and D7) via drinking water, laying hens, infestation on D8
[25] = Group D, 1 (2 × 0.5) mg/kg BW (D0 and D7) via drinking water, laying hens, infestation on D12
[26] = Group D, 1 (2 × 0.5) mg/kg BW (D0 and D7) via drinking water, laying hens, infestation on D15
[27] = Group D, 1 (2 × 0.5) mg/kg BW (D0 and D7) via drinking water, laying hens, infestation on D19
[28] = Group D, 1 (2 × 0.5) mg/kg BW (D0 and D7) via drinking water, laying hens, infestation on D22

Cc1cc(C2=NOC(c3cc(Cl)cc(Cl)c3)(C(F)(F)F)C2)ccc1C(=O)NCC(=O)NCC(F)(F)F (stereo not shown) [fluralaner, 4-[5-(3,5-Dichlorophenyl)-5-trifluoromethyl-4,5-dihydroisoxazol-3-yl]-2-methyl-N-[(2,2,2-trifluoro-ethylcarbamoyl)-methyl]-benzamide]
% Inhibition of D. gallinae assessed 24 hours after infestation [1]: 100% | % Mortality of D. gallinae assessed 24 hours after infestation [1]: 100% | % Inhibition of D. gallinae assessed 24 hours after infestation [2]: 100% | % Mortality of D. gallinae assessed 24 hours after infestation [2]: 100% | % Inhibition of D. gallinae assessed 24 hours after infestation [3]: 100% | % Mortality of D. gallinae assessed 24 hours after infestation [3]: 100% | % Inhibition of D. gallinae assessed 24 hours after infestation [4]: 100% | % Mortality of D. gallinae assessed 24 hours after infestation [4]: 100% | % Inhibition of D. gallinae assessed 24 hours after infestation [5]: 81% | % Mortality of D. gallinae assessed 24 hours after infestation [5]: 77% | % Inhibition of D. gallinae assessed 24 hours after infestation [6]: 14% | % Mortality of D. gallinae assessed 24 hours after infestation [6]: 1% | % Inhibition of D. gallinae assessed 24 hours after infestation [7]: 0% | % Mortality of D. gallinae assessed 24 hours after infestation [7]: 0% | % Inhibition of D. gallinae assessed 24 hours after infestation [8]: 100% | % Mortality of D. gallinae assessed 24 hours after infestation [8]: 100% | % Inhibition of D. gallinae assessed 24 hours after infestation [9]: 100% | % Mortality of D. gallinae assessed 24 hours after infestation [9]: 100% | % Inhibition of D. gallinae assessed 24 hours after infestation [10]: 100% | % Mortality of D. gallinae assessed 24 hours after infestation [10]: 100% | % Inhibition of D. gallinae assessed 24 hours after infestation [11]: 95% | % Mortality of D. gallinae assessed 24 hours after infestation [11]: 94% | % Inhibition of D. gallinae assessed 24 hours after infestation [12]: 81% | % Mortality of D. gallinae assessed 24 hours after infestation [12]: 77% | % Inhibition of D. gallinae assessed 24 hours after infestation [13]: 3% | % Mortality of D. gallinae assessed 24 hours after infestation [13]: 2% | % Inhibition of D. gallinae assessed 24 hours after infestation [14]: 0% | % Mortality of D. gallinae assessed 24 hours after infestation [14]: 0% | % Inhibition of D. gallinae assessed 24 hours after infestation [15]: 100% | % Mortality of D. gallinae assessed 24 hours after infestation [15]: 100% | % Inhibition of D. gallinae assessed 24 hours after infestation [16]: 100% | % Mortality of D. gallinae assessed 24 hours after infestation [16]: 100% | % Inhibition of D. gallinae assessed 24 hours after infestation [17]: 100% | % Mortality of D. gallinae assessed 24 hours after infestation [17]: 97% | % Inhibition of D. gallinae assessed 24 hours after infestation [18]: 75% | % Mortality of D. gallinae assessed 24 hours after infestation [18]: 55% | % Inhibition of D. gallinae assessed 24 hours after infestation [19]: 19% | % Mortality of D. gallinae assessed 24 hours after infestation [19]: 15% | % Inhibition of D. gallinae assessed 24 hours after infestation [20]: 0% | % Mortality of D. gallinae assessed 24 hours after infestation [20]: 0% | % Inhibition of D. gallinae assessed 24 hours after infestation [21]: 0% | % Mortality of D. gallinae assessed 24 hours after infestation [21]: 0% | % Inhibition of D. gallinae assessed 24 hours after infestation [22]: 100% | % Mortality of D. gallinae assessed 24 hours after infestation [22]: 100% | % Inhibition of D. gallinae assessed 24 hours after infestation [23]: 100% | % Mortality of D. gallinae assessed 24 hours after infestation [23]: 100% | % Inhibition of D. gallinae assessed 24 hours after infestation [24]: 100% | % Mortality of D. gallinae assessed 24 hours after infestation [24]: 100% | % Inhibition of D. gallinae assessed 24 hours after infestation [25]: 100% | % Mortality of D. gallinae assessed 24 hours after infestation [25]: 100% | % Inhibition of D. gallinae assessed 24 hours after infestation [26]: 99% | % Mortality of D. gallinae assessed 24 hours after infestation [26]: 98% | % Inhibition of D. gallinae assessed 24 hours after infestation [27]: 66% | % Mortality of D. gallinae assessed 24 hours after infestation [27]: 59% | % Inhibition of D. gallinae assessed 24 hours after infestation [28]: 27% | % Mortality of D. gallinae assessed 24 hours after infestation [28]: 14% | onset of action (all administered doses, via drinking water, laying hens): fast onset of action | inhibition of red poultry mites (drinking water administration to poultry animals, for at least 15 days): 99%
